# Test results from US10597388B2, “Pyridazinone herbicides” (FMC CORPORATION, priority 2014, dated 2020).
# Assays:
# Test in all cases: Test D controlled growth environment herbicide test, pre- and postemergence
# Type in all cases: in vivo
# [1] = tested on: Russian thistle (Salsola kali)
# Method in brief: (§1)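 Rating is visual, 0–100 scale (100 = complete control), made against untreated plants 14–21 d after treatment in controlled growth conditions. Postemergence sprays went onto 1- to 4-leaf plants in peat medium; preemergence sprays onto silt loam after sowing; formulation included a surfactant.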
# [2] = tested on: blackgrass (Alopecurus myosuroides)
# Method in brief: as §1
# [3] = tested on: bluegrass (annual bluegrass, Poa annua)
# Method in brief: as §1
# [4] = tested on: buckwheat, wild (wild buckwheat, Polygonum convolvulus)
# Method in brief: as §1
# [5] = tested on: canarygrass (Phalaris minor)
# Method in brief: as §1
# [6] = tested on: chickweed (common chickweed, Stellaria media)
# Method in brief: as §1
# [7] = tested on: field poppy (Papaver rhoeas)
# Method in brief: as §1
# [8] = tested on: foxtail, green (green foxtail, Setaria viridis)
# Method in brief: as §1
# [9] = tested on: galium (catchweed bedstraw, Galium aparine)
# Method in brief: as §1
# [10] = tested on: kochia (Kochia scoparia)
# Method in brief: as §1
# [11] = tested on: pigweed (Amaranthus retroflexus)
# Method in brief: as §1
# [12] = tested on: ryegrass, Italian (Italian ryegrass, Lolium multiflorum)
# Method in brief: as §1
# [13] = tested on: wheat, winter (winter wheat, Triticum aestivum)
# Method in brief: as §1
# [14] = Postemergence, 31 g ai/ha, scale 0 to 100 (0 no effect, 100 complete control)
# [15] = Postemergence, 125 g ai/ha, visual rating on scale 0 (no effect) to 100 (complete control), 14 to 21 d
# [16] = Postemergence, 250 g ai/ha, scale 0 to 100 (0 no effect, 100 complete control)
# [17] = Preemergence, 62 g ai/ha, scale 0 to 100 (0 no effect, 100 complete control)
# [18] = Preemergence, 125 g ai/ha, scale 0 to 100 (0 no effect, 100 complete control)
# [19] = Preemergence, 250 g ai/ha, scale 0 to 100 (0 no effect, 100 complete control)
# [20] = postemergence, 62 g ai/ha, scale 0 to 100, 0 no effect, 100 complete control
smiles,measurement,setting,value
CC(=O)Oc1c(C)nn(C)c(=O)c1-c1c(C)sc2c(C)cc(C)cc12 [Compound 27],Russian Thistle plant response rating,[1]; [14],65
same,"Plant response rating, Russian Thistle",[1]; [15],70
same,"Plant response rating, Russian Thistle",[1]; [16],70
same,"Plant response rating (scale of 0 to 100), Russian Thistle","[1]; Preemergence, 31 g ai/ha",0
same,"Plant response rating, Russian Thistle",[1]; [17],10
same,"Plant response rating, Russian Thistle",[1]; [18],65
same,"Plant response rating, Russian Thistle",[1]; [19],75
same,"Plant response rating, Russian Thistle",[1]; [20],75
same,Blackgrass plant response rating,[2]; [14],75
same,"Plant response rating, Blackgrass",[2]; [15],90
same,"Plant response rating, Blackgrass",[2]; [16],90
same,"Plant response rating (scale of 0 to 100), Blackgrass","[2]; Preemergence, 31 g ai/ha",85
same,"Plant response rating, Blackgrass",[2]; [17],90
same,"Plant response rating, Blackgrass",[2]; [18],95
same,Blackgrass plant response rating,[2]; [19],100
same,"Plant response rating, Blackgrass",[2]; [20],80
same,Bluegrass plant response rating,[3]; [14],15
same,"Plant response rating, Bluegrass",[3]; [15],30
same,"Plant response rating, Bluegrass",[3]; [16],40
same,"Plant response rating (scale of 0 to 100), Bluegrass","[3]; Preemergence, 31 g ai/ha",25
same,"Plant response rating, Bluegrass",[3]; [17],35
same,"Plant response rating, Bluegrass",[3]; [18],70
same,Bluegrass plant response rating,[3]; [19],80
same,"Plant response rating, Bluegrass",[3]; [20],25
same,"Buckwheat, Wild plant response rating",[4]; [14],100
same,"Plant response rating, Buckwheat, Wild",[4]; [15],100
same,"Plant response rating, Buckwheat, Wild",[4]; [16],100
same,"Plant response rating (scale of 0 to 100), Buckwheat, Wild","[4]; Preemergence, 31 g ai/ha",25
same,"Plant response rating, Buckwheat, Wild",[4]; [17],30
same,"Plant response rating, Buckwheat, Wild",[4]; [18],45
same,"Plant response rating, Buckwheat, Wild",[4]; [19],80
same,"Plant response rating, Buckwheat, Wild",[4]; [20],100
same,Canarygrass plant response rating,[5]; [14],75
same,"Plant response rating, Canarygrass",[5]; [15],85
same,"Plant response rating, Canarygrass",[5]; [16],90
same,"Plant response rating (scale of 0 to 100), Canarygrass","[5]; Preemergence, 31 g ai/ha",85
same,"Plant response rating, Canarygrass",[5]; [17],95
same,"Plant response rating, Canarygrass",[5]; [18],100
same,"Plant response rating, Canarygrass",[5]; [19],100
same,"Plant response rating, Canarygrass",[5]; [20],80
same,Chickweed plant response rating,[6]; [14],95
same,"Plant response rating, Chickweed",[6]; [15],100
same,"Plant response rating, Chickweed",[6]; [16],100
same,"Plant response rating (scale of 0 to 100), Chickweed","[6]; Preemergence, 31 g ai/ha",100
same,"Plant response rating, Chickweed",[6]; [17],100
same,"Plant response rating, Chickweed",[6]; [18],100
same,"Plant response rating, Chickweed",[6]; [19],100
same,"Plant response rating, Chickweed",[6]; [20],100
same,Field Poppy plant response rating,[7]; [14],85
same,"Plant response rating, Field Poppy",[7]; [15],100
same,"Plant response rating, Field Poppy",[7]; [16],100
same,"Plant response rating (scale of 0 to 100), Field Poppy","[7]; Preemergence, 31 g ai/ha",100
same,"Plant response rating, Field Poppy",[7]; [17],100
same,"Plant response rating, Field Poppy",[7]; [18],100
same,"Plant response rating, Field Poppy",[7]; [19],100
same,"Plant response rating, Field Poppy",[7]; [20],100
same,"Foxtail, Green plant response rating",[8]; [14],70
same,"Plant response rating, Foxtail, Green",[8]; [15],80
same,"Plant response rating, Foxtail, Green",[8]; [16],80
same,"Plant response rating (scale of 0 to 100), Foxtail, Green","[8]; Preemergence, 31 g ai/ha",95
same,"Plant response rating, Foxtail, Green",[8]; [17],95
same,"Plant response rating, Foxtail, Green",[8]; [18],100
same,"Plant response rating, Foxtail, Green",[8]; [19],100
same,"Plant response rating, Foxtail, Green",[8]; [20],80
same,Galium plant response rating,[9]; [14],100
same,"Plant response rating, Galium",[9]; [15],100
same,"Plant response rating, Galium",[9]; [16],100
same,"Plant response rating (scale of 0 to 100), Galium","[9]; Preemergence, 31 g ai/ha",60
same,"Plant response rating, Galium",[9]; [17],70
same,"Plant response rating, Galium",[9]; [18],85
same,"Plant response rating, Galium",[9]; [19],100
same,"Plant response rating, Galium",[9]; [20],100
same,Kochia plant response rating,[10]; [14],45
same,"Plant response rating, Kochia",[10]; [15],55
same,"Plant response rating, Kochia",[10]; [16],75
same,"Plant response rating (scale of 0 to 100), Kochia","[10]; Preemergence, 31 g ai/ha",0
same,"Plant response rating, Kochia",[10]; [17],20
same,"Plant response rating, Kochia",[10]; [18],30
same,"Plant response rating, Kochia",[10]; [19],60
same,"Plant response rating, Kochia",[10]; [20],55
same,Pigweed plant response rating,[11]; [14],75
same,"Plant response rating, Pigweed",[11]; [15],95
same,"Plant response rating, Pigweed",[11]; [16],95
same,"Plant response rating (scale of 0 to 100), Pigweed","[11]; Preemergence, 31 g ai/ha",100
same,"Plant response rating, Pigweed",[11]; [17],100
same,"Plant response rating, Pigweed",[11]; [18],100
same,"Plant response rating, Pigweed",[11]; [19],100
same,"Plant response rating, Pigweed",[11]; [20],85
same,"Ryegrass, Italian plant response rating",[12]; [14],80
same,"Plant response rating, Ryegrass, Italian",[12]; [15],85
same,"Plant response rating, Ryegrass, Italian",[12]; [16],85
same,"Plant response rating (scale of 0 to 100), Ryegrass, Italian","[12]; Preemergence, 31 g ai/ha",90
same,"Plant response rating, Ryegrass, Italian",[12]; [17],100
same,"Plant response rating, Ryegrass, Italian",[12]; [18],100
same,"Plant response rating, Ryegrass, Italian",[12]; [19],100
same,"Plant response rating, Ryegrass, Italian",[12]; [20],85
same,"Wheat, Winter plant response rating",[13]; [14],0
same,"Plant response rating, Wheat, Winter",[13]; [15],5
same,"Plant response rating, Wheat, Winter",[13]; [16],10
same,"Plant response rating (scale of 0 to 100), Wheat, Winter","[13]; Preemergence, 31 g ai/ha",0
same,"Plant response rating, Wheat, Winter",[13]; [17],0
same,"Plant response rating, Wheat, Winter",[13]; [18],0
same,"Plant response rating, Wheat, Winter",[13]; [19],5
same,"Plant response rating, Wheat, Winter",[13]; [20],5
